Key:
ducksalad = assay: Test C flooded paddy test; type: in vivo, Heteranthera limosa; details: Flood
Method in brief: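 Pots were flooded to 3 cm above the soil surface at treatment, compound applied directly to the paddy water, and that depth held throughout. Plants were kept in a greenhouse for 13 to 15 days, then visually rated against untreated controls.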

galium = assay: Test A postemergence; type: in vivo, Galium aparine
Method in brief: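 Seeds were sown in a loam soil–sand blend and given a directed soil spray preemergence; postemergence plants at 2–10 cm, one- to two-leaf stage, were sprayed with compound in non-phytotoxic solvent with surfactant. After about 10 days in a greenhouse, injury was visually rated against untreated controls (0 = no effect, 100 = complete control).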

crabgrass, large = assay: Test E preemergence; type: in vivo, Digitaria sanguinalis; details: 21 days, scale 0 to 100
From the text: (§1) Seeds of plant species selected from bermudagrass (Cynodon dactylon), Surinam grass (Brachiaria decumbens), crabgrass, large (large crabgrass, Digitaria sanguinalis), crabgrass, naked (naked crabgrass, Digitaria nuda), foxtail, green (green foxtail, Setaria viridis), johnsongrass (Sorghum halepense), kochia (Kochia scoparia), morningglory (pitted morningglory, Ipomoea lacunosa), nutsedge, purple (purple nutsedge, Cyperus rotundus), ragweed (common ragweed, Ambrosia elation), mustard, black (black mustard, Brassica nigra), guineagrass (Panicum maximum), dallisgrass (Paspalum dilatatum), barnyardgrass (Echinochloa crus-galli), sandbur (southern sandbur, Cenchrus echinatus), sowthistle (common sowthistle, Sonchus oleraceous), ryegrass, Italian (Italian ryegrass, Lolium multiflorum), signalgrass (broadleaf signalgrass, Brachiaria platyphylla), dayflower, VA (Virginia (VA) dayflower, Commelina virginica), bluegrass (annual bluegrass, Poa annua), quackgrass (Elytrigia repens), mallow (common mallow, Malva sylvestris), buckwheat, wild (wild buckwheat, Polygonum convolvulus), leafy spurge (Euphorbia esula), common chickweed (Stellaria media), wild poinsettia (Euphorbia heterophylla), pigweed, palmer (palmer pigweed, Amaranthus palmeri), and pigweed (redroot pigweed, Amaranthus retroflexus) were planted into a blend of loam soil and sand and treated preemergence with test chemicals formulated in a non-phytotoxic solvent mixture which included a surfactant.
(§2) Treated plants and controls were maintained in a greenhouse for 21 days, after which time all species were compared to controls and visually evaluated. Plant response ratings, summarized in Table E, are based on a scale of 0 to 100 where 0 is no effect and 100 is complete control. A dash (-) response means no test result.

ragweed = assay: Test E preemergence; type: in vivo, Ambrosia elation; details: 21 days, scale 0 to 100
From the text: as §1, §2

leafy spurge = assay: Test E preemergence; type: in vivo, Euphorbia esula; details: 21 days, scale 0 to 100
From the text: as §1, §2

corn = assay: Test F postemergence; type: in vivo, Zea mays; details: scale 0 to 100
From the text: (§3) Seeds of plant species selected from corn (Zea mays), soybean (Glycine max), velvetleaf (Abutilon theophrasti), lambsquarters (Chenopodium album), wild poinsettia (Euphorbia heterophylla), pigweed, palmer (palmer pigweed, Amaranthus palmeri), common waterhemp (Amaranthus rudis), surinam grass (Brachiaria decumbens), large crabgrass (Digitaria sanguinalis), crabgrass, Brazil (Brazilian crabgrass, Digitaria horizontalis), fall panicum (Panicum dichotomiflorum), giant foxtail (Setaria faberii), green foxtail (Setaria viridis), goosegrass (Eleusine indica), johnsongrass (Sorghum halepense), common ragweed (Ambrosia elation), barnyardgrass (Echinochloa crus-galli), southern sandbur (Cenchrus echinatus), arrowleaf sida (Sida rhombifolia), Italian ryegrass (Lolium multiflorum), dayflower, VA (Virginia (VA) dayflower, Commelina virginica), field bindweed (Convolvulus arvensis), cocklebur (common cocklebur, Xanthium strumarium), morningglory (Ipomoea coccinea), nightshade (eastern black nightshade, Solanum ptycanthum), kochia (Kochia scoparia), yellow nutsedge (Cyperus esculentus), and hairy beggarticks (Bidens pilosa), were planted into a silt loam soil and treated preemergence with test chemicals formulated in a non-phytotoxic solvent mixture which included a surfactant.
(§4) At the same time, plants from these crop and weed species and also horseweed (Canada horseweed, Conyza canadensis), smartweed (ladysthumb smartweed, Polygonum persicaria), waterhemp_RES1, (ALS & Triazine resistant common waterhemp, Amaranthus rudis), and waterhemp_RES2, (ALS & HPPD resistant common waterhemp, Amaranthus rudis) were treated with postemergence applications of test chemicals formulated in the same manner. Plants ranged in height from 2 to 18 cm for postemergence treatments (1- to 4-leaf stage). Treated plants and controls were maintained in a greenhouse for 14 to 21 days, after which time all species were compared to controls and visually evaluated. Plant response ratings, summarized in Table F, are based on a scale of 0 to 100 where 0 is no effect and 100 is complete control. A dash (-) response means no test result.

kochia = assay: Test F postemergence; type: in vivo, Kochia scoparia; details: scale 0 to 100
From the text: as §3, §4

[1] = 31 g ai/ha, scale 0 to 100 (0 no effect, 100 complete control)
[2] = 62 g ai/ha, scale 0 to 100 (0 no effect, 100 complete control)
[3] = 125 g ai/ha, scale 0 to 100 (0 no effect, 100 complete control)
[4] = Postemergence, 500 g ai/ha, 0 to 100 scale (0 no effect, 100 complete control)
[5] = postemergence, 125 g ai/ha, about 10 days, visual rating on 0 to 100 scale (0 no effect, 100 complete control)

Row | Compound | Plant response rating, Ducksalad (ducksalad; [1]) | Plant response rating, Ducksalad (ducksalad; [2]) | Plant response rating, Crabgrass, Large (crabgrass, large; 16 g ai/ha) | Plant response rating, Crabgrass, Large (crabgrass, large; 31 g ai/ha) | Plant response rating, Crabgrass, Large (crabgrass, large; 62 g ai/ha) | Plant response rating, Crabgrass, Large (crabgrass, large; 125 g ai/ha) | Plant response rating, Crabgrass, Large (crabgrass, large; 250 g ai/ha) | Plant response rating, Ragweed (ragweed; 16 g ai/ha) | Plant response rating, Ragweed (ragweed; 31 g ai/ha) | Plant response rating, Ragweed (ragweed; 62 g ai/ha) | Plant response rating, Ragweed (ragweed; 125 g ai/ha) | Plant response rating, Ragweed (ragweed; 250 g ai/ha) | Plant response rating, Leafy Spurge (leafy spurge; 16 g ai/ha) | Plant response rating, Leafy Spurge (leafy spurge; 31 g ai/ha) | Plant response rating, Leafy Spurge (leafy spurge; 62 g ai/ha) | Plant response rating, Leafy Spurge (leafy spurge; 125 g ai/ha) | Plant response rating, Leafy Spurge (leafy spurge; 250 g ai/ha) | Plant response rating, Corn (corn; Postemergence, 31 g ai/ha) | Plant response rating, Corn (corn; Postemergence, 125 g ai/ha) | Plant response rating, Corn (corn; Postemergence, 250 g ai/ha) | also measured
1 | CCc1cc(C(=O)NC2CC2)nn1Cc1ccnc(OCC(F)(F)F)c1 [Compound 200] | 30 | 30 |  |  |  |  |  |  |  |  |  |  |  |  |  |  |  |  |  |  | Plant response rating, Ducksalad (ducksalad; [3]): 100; Plant response rating, Ducksalad (ducksalad; 250 g ai/ha, scale 0 to 100): 100
2 | CCOc1cc(C(=O)NC2CC2)nn1Cc1ccnc(OC(F)F)c1 [Compound 133] |  |  |  |  |  |  |  |  |  |  |  |  |  |  |  |  |  |  |  |  | Galium plant response rating (galium; [4]): 90; Galium plant response rating (galium; [5]): 80
3 | CCc1cc(C(=O)NCC(F)(F)F)nn1Cc1ccnc(C(F)(F)F)c1 [Compound 78, 5-ethyl-N-(2,2,2-trifluoroethyl)-1-[[(2-trifluoromethyl)-4-pyridinyl]methyl]-1H-pyrazole-3-carboxamide] |  |  | 90 | 100 | 100 | 100 | 100 | 75 | 100 | 100 | 100 | 100 | 80 | 100 | 100 | 100 | 100 | 15 | 50 | 85 | Plant response rating, Corn (corn; postemergence, 62 g ai/ha): 20; Plant response rating, Kochia (kochia; Postemergence, 31 g ai/ha): 65; Plant response rating, Kochia (kochia; Postemergence, 125 g ai/ha): 90; Plant response rating, Kochia (kochia; Postemergence, 250 g ai/ha): 90; Plant response rating, Kochia (kochia; postemergence, 62 g ai/ha): 90; Plant response rating, Kochia (kochia; postemergence, 500 g ai/ha): 95
4 | CCc1cc(C(=O)NC(C)C)nn1Cc1ccnc(C(F)(F)F)c1 [Compound 103] |  |  | 100 | 100 | 100 | 100 | 100 | 5 | 98 | 100 | 100 | 100 | 75 | 95 | 100 | 100 | 100 |  |  |  | 
5 | CCc1cc(C(=O)NC2CC2)nn1Cc1cc(C(F)(F)C(F)(F)F)nn1C [Compound 226] | 30 | 60 |  |  |  |  |  |  |  |  |  |  |  |  |  |  |  |  |  |  | Plant response rating, Ducksalad (ducksalad; [3]): 75
6 | CCCc1cc(C(=O)NCC(F)(F)F)nn1Cc1ccnc(C(F)(F)F)c1 [Compound 105] |  |  | 98 | 100 | 100 | 100 | 100 | 70 | 100 | 100 | 100 | 100 | 100 | 100 | 100 | 100 | 100 | 10 | 40 | 80 | Plant response rating, Corn (corn; postemergence, 62 g ai/ha): 30; Plant response rating, Kochia (kochia; Postemergence, 31 g ai/ha): 60; Plant response rating, Kochia (kochia; Postemergence, 125 g ai/ha): 90; Plant response rating, Kochia (kochia; Postemergence, 250 g ai/ha): 95; Plant response rating, Kochia (kochia; postemergence, 62 g ai/ha): 90; Plant response rating, Kochia (kochia; postemergence, 500 g ai/ha): 95
7 | CCOc1cc(C(=O)NCC(F)(F)F)nn1Cc1ccnc(C(F)(F)F)c1 [Compound 104] |  |  | 100 | 100 | 100 | 100 | 100 | 100 | 100 | 100 | 100 | 100 | 100 | 98 | 100 | 98 | 100 | 10 | 50 | 90 | Plant response rating, Corn (corn; postemergence, 62 g ai/ha): 25; Plant response rating, Kochia (kochia; Postemergence, 31 g ai/ha): 75; Plant response rating, Kochia (kochia; Postemergence, 125 g ai/ha): 90; Plant response rating, Kochia (kochia; Postemergence, 250 g ai/ha): 95; Plant response rating, Kochia (kochia; postemergence, 62 g ai/ha): 80; Plant response rating, Kochia (kochia; postemergence, 500 g ai/ha): 95
8 | CCONC(=O)c1cc(OCC)n(Cc2ccnc(C(F)(F)F)c2)n1 [Compound 195] | 0 | 20 |  |  |  |  |  |  |  |  |  |  |  |  |  |  |  |  |  |  | Plant response rating, Ducksalad (ducksalad; [3]): 85; Plant response rating, Ducksalad (ducksalad; 250 g ai/ha, scale 0 to 100): 85
9 | CCCNC(=O)c1cc(CCCl)n(Cc2ccnc(C(F)(F)F)c2)n1 [Compound 145] | 100 | 100 |  |  |  |  |  |  |  |  |  |  |  |  |  |  |  |  |  |  | Plant response rating, Ducksalad (ducksalad; 125 g ai/ha, scale 0 to 100): 100; Plant response rating, Ducksalad (ducksalad; 250 g ai/ha, scale 0 to 100): 100
10 | CCONC(=O)c1cc(CC)n(Cc2cc(C(F)(F)F)no2)n1 [Compound 125] |  |  |  |  |  |  |  |  |  |  |  |  |  |  |  |  |  |  |  |  | Galium plant response rating (galium; [4]): 90; Galium plant response rating (galium; [5]): 60
11 | CCc1cc(C(=O)NCC(F)(F)F)nn1Cc1cc(OC(F)F)nn1C [Compound 206] |  |  |  |  |  |  |  |  |  |  |  |  |  |  |  |  |  |  |  |  | Galium plant response rating (galium; Postemergence, 125 g ai/ha, 0 to 100 scale, 0 no effect, 100 complete control): 20; Galium plant response rating (galium; [4]): 80
12 | CCOc1cc(C(=O)NC(C)C)nn1Cc1ccnc(C(F)(F)F)c1 [Compound 188] |  |  |  |  |  |  |  |  |  |  |  |  |  |  |  |  |  | 10 | 60 | 95 | Plant response rating, Corn (corn; postemergence, 62 g ai/ha): 20; Plant response rating, Kochia (kochia; Postemergence, 31 g ai/ha): 40; Plant response rating, Kochia (kochia; Postemergence, 125 g ai/ha): 95; Plant response rating, Kochia (kochia; Postemergence, 250 g ai/ha): 90; Plant response rating, Kochia (kochia; postemergence, 62 g ai/ha): 60; Plant response rating, Kochia (kochia; postemergence, 500 g ai/ha): 95
13 | CCOc1cc(C(=O)NC2CC2)nn1Cc1ccnc(C(F)(F)F)c1 [Compound 189] |  |  | 100 | 100 | 100 |  |  | 100 | 100 | 100 |  |  | 100 | 100 | 100 |  |  |  |  |  | Plant response rating, Crabgrass, Large (crabgrass, large; 4 g ai/ha): 0; Plant response rating, Crabgrass, Large (crabgrass, large; 8 g ai/ha): 95; Plant response rating, Ragweed (ragweed; 8 g ai/ha): 95; Plant response rating, Leafy Spurge (leafy spurge; 4 g ai/ha): 35; Plant response rating, Leafy Spurge (leafy spurge; 8 g ai/ha): 75
